# In patent US9408888B2, “High affinity bivalent helically constrained peptide against cancer” (COUNCIL OF SCIENTIFIC AND INDUSTRIAL RESEARCH, priority 2011, dated 2016):
# Where a SMILES comes first, the peptide text is derived from it. Bridges are numbered along the chain shown (N, C = ends). Roman numbers before positions name the chains, in order. Where no end group is shown, it is not given here. [ ]: non-standard residue; d: D form. Aib = CC(C)(N)C(=O)O; Ahx = NCCCCCC(=O)O
# How the values were obtained:
# S100B = target: T1, S100B (Homo sapiens, UniProt P04271); experiment: Fluorescence anisotropy binding of N-terminal fluorescein labeled peptides to S100B
# T1 sequence (P04271 1-92): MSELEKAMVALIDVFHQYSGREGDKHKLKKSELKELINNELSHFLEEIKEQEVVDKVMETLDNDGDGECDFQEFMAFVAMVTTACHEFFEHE
# Source text: FIG. 2. (A) Table of some representative peptides synthesized which respectively include pM-53 (SEQ ID No. 6), pBN-53 (SEQ ID No. 7), pBDC-53 (SEQ ID No. 8), pBM-TRTK (SEQ ID No. 2), pBDC-TRTK (two SEQ ID No. 2's cross-linked together with BMH), and pBBD-TRTK (SEQ ID No. 11) and their dissociation constants. Binding isotherm of branch dimeric SEQ ID No. 3 (i.e., SEQ ID No. 11) with (B) S-100B and (C) S100P and (D) branch dimeric SEQ ID No. 5 (i.e., SEQ ID No. 12) with S100B. Fluorescein labeled, 5 nM branch dimeric SEQ ID No. 3 (i.e., SEQ ID No. 11) or branch dimeric SEQ ID No. 5 (i.e., SEQ ID No. 12) was titrated with increasing concentrations of S100B or S100P in 50 mM Tris-HCl buffer, pH 7.5, containing 50 mM NaCl and 10 mM CaCl2 at ambient temperatures which was 25±1 degree C. Anisotropy was determined at each point. The each point is averaging of at least three independent experiments. The line is best fit to a single site binding equation given in description of the invention.
# Binding affinity of aib substituted p53 (SEQ ID No. 7) (and all other peptides) was estimated by fluorescence anisotropy using N-terminal fluorescein labeled peptides. […] Since S100B is a dimer, one possible way to enhance the binding is to synthesize a bivalent molecule, which can simultaneously bind to two subunits. SEQ ID No. 7 was dimerized with a properly designed cross-linker through inserted cysteine residues (SEQ ID No. 8). The C-terminal side of the two peptides (bound to two different subunits) comes fairly close and is separated by shallow groove allowing a cross-linker to fit. The length of the cross-linker was chosen such that it spans the separation between the two cysteine residues in the predicted structure.
# Binding data of the several of these peptides are shown in FIG. 2 (A) and some of the corresponding binding isotherms are shown FIG. 2(B-D). […] Also synthesized was a mutant branched peptide (SEQ ID No. 12 which is a lysine branch dimeric form of SEQ ID No. 5) bearing two mutations in the interacting residues. […] This peptide will be used as a control in the cellular experiments to be described later.
# SK-MEL5 cells = experiment: Phase contrast microscopy of SK-MEL5 cells (shape change, blebbing, apoptosis); format: cell-based
# Source text: FIG. 3. Phase contrast microscopy of SK-MEL5 cells (A) 2 hrs after treatment with 10 microM SEQ ID No. 10; (B) 18 hrs after treatment with 20 microM branch dimeric SEQ ID No. 5 (i.e., SEQ ID No. 12); (C) 2 hr after treatment with branch dimeric SEQ ID No. 3 (i.e., SEQ ID No. 11) (without the cell penetration tag) and (D) control.
# FIG. 6. (A) Phase contrast microscopy of SK-MEL5 cells (Upper panel) 10 microM SEQ ID No. 10 with DR6 tags at two branches (Lower panel), and 10 microM pBBDR-TRTK (i.e., SEQ ID No. 10), pre-treated with 10 microM pifithrin-micro, 1 hr after treatment (Upper panel). (B) Confocal microscopic images of merged p53 (green) and mitotracker (red), Top untreated and bottom, 1 h after treatment with SEQ ID No. 10.
# The effect of all the synthesized peptides on several melanoma cell lines which are known to over-express S100B was investigated.
# Given the rapidity of apoptosis initiation, the examination of the recently reported direct mitochondrial translocation pathway was also done by the method if Vaseva and Moll, 2009. It has been reported that a small molecule pifithrin-micro blocks this pathway without affecting the canonical transcription-dependent pathway of p53 initiated apoptosis and a close analog, pifithrin-α blocks the canonical pathway without affecting the direct mitochondrial pathway (Strom et al., 2006). […]
# SK-MEL-5 cells = format: cell-based; conditions: 18 h
# Experimental: FIG. 4. (A) Assay of cell viability using incorporation of ^3H-thymidine after treatment with different concentrations of SEQ ID No. 10 for 18 hrs. (B) Flow cytometry of SK-MEL5 cells before and after treatment with 10 microM SEQ ID No. 10 with DR6 tags at two branches, using Annexin V and Propidium Iodide (lower panel) and forward/side scatter (upper panel).
# The effect of SEQ ID No. 10 on viability was also measured by ^3H thymidine uptake (FIG. 4 (A)). […] The apoptosis of SK-Mel5 cells was quantitated using flow cytometry. 49% of cells were determined to be apoptotic and 11% necrotic at 2 hrs using annexin V stain. Corresponding figures for 6 hrs were 57% and 14%, respectively (FIG. 4(B)). From the results presented here and analysis of growth promoting pathways described later-S100B appears to be a generalized growth promoter, when over-expressed.
# [1] = Toxicity in mice, i.v. treatment; format: in vivo, mouse
# Experimental: The effect of SEQ ID No. 10 was tested in a syngenic mouse model of melanoma. […] Histopathology of some key target organs after 8 days of treatment was normal, indicating no significant toxicity. […] Immuno-histochemistry of growth marker PCNA indicates complete loss of this antigen in the residual tumor mass upon treatment, indicating complete loss of proliferating cells (FIG. 7(C)).
# Experiments were carried out under protocols approved by the Institutional Animal Ethics Committee and institutional guidelines for the proper use of animals in research were followed. National guidelines had been followed. C57BL/6J female mice (mean initial weight, 20 g) were kept in one mice in one cage at 19° C. to 23° C. with a 12 hour light/12 hour dark cycle. They had free access to water and food. To generate tumor, 1×10^6 B16F10 cells were mixed with Matrigel (BD bioscience) and inoculated S.C. in the right flank of 6 week-old mice. Tumors (typically 2 mm in diameter) were palpable 5 days after subcutaneous injection. Peptide treatments (50 mg/kg body weight) were administered by intravenous tail vein injection on the day tumors became apparent (day 0) and then days 1, 2, 3, 4, 5, 6 and 7. Control mice were treated only with saline vehicle. Mice were weighted, and tumor volumes were calculated with the following formula: π/6×larger diameter×(smaller diameter)^2.
# [2] = upto 50 mg/Kg body weight, i.v.
molecule,measurement,setting,value
SEQ ID No. 2: pBM-TRTK dimerised through cysteine residues with BMH cross-linker (TRTKIDW[Aib]KIL[Aib]GGGCG-NH2; also: dimer through Cys via BMH crosslinker),"binding to S100B relative to parent peptide, in words",S100B; fluorescence anisotropy,approximately an order of magnitude tighter binding
"QSTBRHBKLMFKTBG (QST[Aib]RH[Aib]KLMFKT[Aib]G-NH2) [SEQ ID No. 7, P53 Aib substituted monomer peptide]","binding to S100B relative to parent peptide, in words",S100B; fluorescence anisotropy,somewhat stronger than the unmodified peptide
same,"dissociation constant for S100B, in words",S100B; fluorescence anisotropy,micromolar range
"CC[C@H](C)[C@H](NC(=O)[C@H](CCCCN)NC(=O)C(C)(C)NC(=O)[C@H](C)NC(=O)[C@H](CC(=O)O)NC(=O)[C@H](C)NC(=O)[C@H](CCCCN)NC(=O)[C@@H](NC(=O)[C@H](CCCNC(=N)N)NC(=O)[C@@H](N)[C@@H](C)O)[C@@H](C)O)C(=O)N[C@@H](CC(C)C)C(=O)NC(C)(C)C(=O)N[C@@H](CCCCN)C(=O)NCCCCCC(=O)NCCCC[C@H](NC(=O)CCCCCNC(=O)[C@H](CCCCN)NC(=O)C(C)(C)NC(=O)[C@H](CC(C)C)NC(=O)[C@@H](NC(=O)[C@H](CCCCN)NC(=O)C(C)(C)NC(=O)[C@H](C)NC(=O)[C@H](CC(=O)O)NC(=O)[C@H](C)NC(=O)[C@H](CCCCN)NC(=O)[C@@H](NC(=O)[C@H](CCCNC(=N)N)NC(=O)[C@@H](N)[C@@H](C)O)[C@@H](C)O)[C@@H](C)CC)C(N)=O [SEQ ID No. 12, TRTKADABKILBKAhxKAhxKBLIKBADAKTRT-(I5A,W7A)] (I: H-TRTKADA[Aib]KIL[Aib]K[Ahx]K-NH2 / II: H-TRTKADA[Aib]KIL[Aib]K[Ahx]; amide I:15-II:C; N-terminus assumed)",Kd,"S100B; fluorescence anisotropy, 50 mM Tris-HCl pH 7.5, 50 mM NaCl, 10 mM CaCl2, 25 degree C, read-out: Kd (dissociation constant) for S100B",135 ± 18.5 nM
"NS(=O)(=O)C#Cc1ccccc1 [pifithrin-μ, reference compound]",effect of pifithrin-μ on peptide-induced apoptosis,"SK-MEL5 cells; 10 microM pifithrin pre-treatment, 10 microM peptide, 1 hr",blebbings are not seen
SEQ ID No. 8: GCGG Modified pBM53 dimerised with BMH crosslinker; monomer QSTBRHBKLMFKTBGGGCG (QST[Aib]RH[Aib]KLMFKT[Aib]GGGCG-NH2; also: dimer via BMH crosslinker),increase in affinity for S100B upon dimerization,S100B; cross-linked dimer versus monomer SEQ ID No. 7,approximately 15 fold
"SEQ ID No. 2 with DR6 tags at two branches: pBM-TRTK dimerised with BMH crosslinker and tagged with hexa-arginine (TRTKIDW[Aib]KIL[Aib]GGGCG-NH2; also: dimer through Cys via BMH crosslinker, DR6 (hexa-arginine) tags on two branches, place not given here)",potency in inducing apoptosis relative to SEQ ID No. 10,SK-MEL5 cells; SK-MEL5,nearly as potent as SEQ ID No. 10
"CC[C@H](C)[C@H](NC(=O)[C@H](CCCCN)NC(=O)[C@@H](NC(=O)[C@H](CCCNC(=N)N)NC(=O)[C@@H](NC(=O)[C@@H](CCCNC(=N)N)NC(=O)[C@@H](CCCNC(=N)N)NC(=O)[C@@H](CCCNC(=N)N)NC(=O)[C@@H](CCCNC(=N)N)NC(=O)[C@@H](CCCNC(=N)N)NC(=O)[C@H](N)CCCNC(=N)N)[C@@H](C)O)[C@@H](C)O)C(=O)N[C@@H](CC(=O)O)C(=O)N[C@@H](Cc1c[nH]c2ccccc12)C(=O)NC(C)(C)C(=O)N[C@@H](CCCCN)C(=O)N[C@H](C(=O)N[C@@H](CC(C)C)C(=O)NC(C)(C)C(=O)N[C@@H](CCCCN)C(=O)NCCCCCC(=O)NCCCC[C@H](NC(=O)CCCCCNC(=O)[C@H](CCCCN)NC(=O)C(C)(C)NC(=O)[C@H](CC(C)C)NC(=O)[C@@H](NC(=O)[C@H](CCCCN)NC(=O)C(C)(C)NC(=O)[C@H](Cc1c[nH]c2ccccc12)NC(=O)[C@H](CC(=O)O)NC(=O)[C@@H](NC(=O)[C@H](CCCCN)NC(=O)[C@@H](NC(=O)[C@H](CCCNC(=N)N)NC(=O)[C@@H](NC(=O)[C@@H](CCCNC(=N)N)NC(=O)[C@@H](CCCNC(=N)N)NC(=O)[C@@H](CCCNC(=N)N)NC(=O)[C@@H](CCCNC(=N)N)NC(=O)[C@@H](CCCNC(=N)N)NC(=O)[C@H](N)CCCNC(=N)N)[C@@H](C)O)[C@@H](C)O)[C@@H](C)CC)[C@@H](C)CC)C(N)=O)[C@@H](C)CC [SEQ ID No. 10, ^DR6 TRTKIDWBKILBKAhxKAhxKBLIKBWDIKTRT-^DR6]",IC50,SK-MEL-5 cells,< 2000 nM
same,histopathology of key target organs,"[1]; after 8 days of treatment, 50 mg/Kg",normal
same,lethality,[1]; [2],non-lethal
same,toxicity,[1]; [2],no demonstrable toxicity
